SMILES strings stand for the structures. Active and inactive are the calls of the source. No cut-off for these calls is given here.

Usually IC50 stands for the concentration needed to halve the response being measured.

Test [1] concerns HCT-116. Nature of the test: Cytotoxicity against human HCT116 cells after 48 hrs by sulforhodamine B assay. Format: functional, cell-based. As to conditions: HCT-116, 48 h. Background: The SRB assay estimates cell density from bound dye.
For test [2], the system named is HT-29. The test is described as follows: Ratio of 5-fluorouracil IC50 to compound IC50 for human HT-29 cells after 48 hrs by sulforhodamine B assay. It counts as functional.
In test [3] the test system is HT-29. The test is described as follows: Cytotoxicity against human HT-29 cells after 48 hrs by sulforhodamine B assay. Format: functional, cell-based. As to conditions: HT-29, 48 h.
Test [4] deals with HCT-116. Nature of the test: Ratio of 5-fluorouracil IC50 to compound IC50 for human HCT116 cells after 48 hrs by sulforhodamine B assay. It counts as functional.
For test [5], the system named is HT-29. Nature of the test: Cell cycle arrest in human HT-29 cells assessed as accumulation at S phase at 1 uM after 48 hrs by propidium iodide staining-based FACS flow cytometric analysis. It counts as functional. Background: A flow cytometer gives signals particle by particle.
The subject of test [6] is HCT-116. The test is described as follows: Induction of apoptosis in human HCT116 cells assessed as dead cells at 1 uM after 48 hrs by Annexin V-FITC and propidium iodide staining-based FACS flow cytometric analysis (reference value: 49.93%). Format: functional.
Test [7] deals with HCT-116. Nature of the test: Induction of apoptosis in human HCT116 cells assessed as live cells at 1 uM after 24 hrs by Annexin V-FITC and propidium iodide staining-based FACS flow cytometric analysis (reference value: 59.15%). Format: functional.
The subject of test [8] is HCT-116. Nature of the test: Induction of apoptosis in human HCT116 cells assessed as dead cells at 1 uM after 24 hrs by Annexin V-FITC and propidium iodide staining-based FACS flow cytometric analysis (reference value: 38.02%). Format: functional.
Test [9] relates to HCT-116. The test is described as follows: Induction of apoptosis in human HCT116 cells assessed as apoptotic cells at 1 uM after 24 hrs by Annexin V-FITC and propidium iodide staining-based FACS flow cytometric analysis (reference value: 2.82%). It counts as functional.
Test [10] concerns HCT-116. The test is described as follows: Cell cycle arrest in human HCT116 cells assessed as accumulation at S phase at 1 uM after 48 hrs by propidium iodide staining-based FACS flow cytometric analysis. Format: functional.
The subject of test [11] is HCT-116. The test is described as follows: Induction of apoptosis in human HCT116 cells assessed as apoptotic cells at 1 uM after 48 hrs by Annexin V-FITC and propidium iodide staining-based FACS flow cytometric analysis (reference value: 2.59%). Format: functional.
Test [12] concerns HCT-116. Nature of the test: Induction of apoptosis in human HCT116 cells assessed as live cells at 1 uM after 48 hrs by Annexin V-FITC and propidium iodide staining-based FACS flow cytometric analysis (reference value: 47.40%). Format: functional.
Test [13] relates to HT-29. The test is described as follows: Cell cycle arrest in human HT-29 cells assessed as accumulation at G2/M phase at 1 uM after 48 hrs by propidium iodide staining-based FACS flow cytometric analysis. Format: functional.
Test [14] has as its system HCT-116. The test is described as follows: Cell cycle arrest in human HCT116 cells assessed as accumulation at G2/M phase at 1 uM after 48 hrs by propidium iodide staining-based FACS flow cytometric analysis. Format: functional.
A further test relates to Mus musculus. The test is described as follows: Reduction in hepatic glutathione levels in ip dosed mouse relative to control. It counts as functional. Also noted: scale not given: the % may be the effect or the level left.

As for `Cc1ccc(/C=C2\CN(C(=O)C(=O)N3C/C(=C\c4ccc(C)cc4)C(=O)/C(=C/c4ccc(C)cc4)C3)C/C(=C\c3ccc(C)cc3)C2=O)cc1`, the figures for the IC50 in the test with HCT-116 [1] and with HT-29 [3] were 90 nM and 129 nM, respectively. Besides, the “Ratio IC50” value was 49 with HT-29 [2] and 50 with HCT-116 [4].
For `Cc1ccc(/C=C2/CN(C(=O)CC(=O)N3C/C(=C\c4ccc(C)cc4)C(=O)/C(=C/c4ccc(C)cc4)C3)C/C(=C\c3ccc(C)cc3)C2=O)cc1`, in that order: 410 nM, 200 nM, 32 and 11.
For `COc1ccc(/C=C2/CN(C(=O)CC(=O)N3C/C(=C\c4ccc(OC)c(OC)c4)C(=O)/C(=C/c4ccc(OC)c(OC)c4)C3)C/C(=C\c3ccc(OC)c(OC)c3)C2=O)cc1OC`, in that order: 180 nM, 310 nM, 20 and 25.
`COc1ccc(/C=C2/CN(C(=O)CC(=O)N3C/C(=C\c4ccc(OC)cc4)C(=O)/C(=C/c4ccc(OC)cc4)C3)C/C(=C\c3ccc(OC)cc3)C2=O)cc1`: the IC50 in the test with HCT-116 [1] was 60 nM; in the test with HT-29 [3], 770 nM. Besides, the “Ratio IC50” value in the test with HT-29 [2] is 8; in the test with HCT-116 [4], 75.
On to `O=C1/C(=C\c2ccc(Cl)cc2)CN(C(=O)CC(=O)N2C/C(=C\c3ccc(Cl)cc3)C(=O)/C(=C/c3ccc(Cl)cc3)C2)C/C1=C\c1ccc(Cl)cc1`, for which the figures for the IC50 in the test on HCT-116 [1] and in the test on HT-29 [3] were 50 nM and 90 nM, respectively. Moreover, the results for the “Ratio IC50” value with HT-29 [2] and with HCT-116 [4] were 71 and 90, respectively.
For `COc1cc(/C=C2/CN(C(=O)CC(=O)N3C/C(=C\c4cc(OC)c(OC)c(OC)c4)C(=O)/C(=C/c4cc(OC)c(OC)c(OC)c4)C3)C/C(=C\c3cc(OC)c(OC)c(OC)c3)C2=O)cc(OC)c1OC`, in that order: 20 nM, 40 nM, 159 and 226.
On the same counts, the results for `O=C1/C(=C\c2ccc(Cl)c(Cl)c2)CN(C(=O)CC(=O)N2C/C(=C\c3ccc(Cl)c(Cl)c3)C(=O)/C(=C/c3ccc(Cl)c(Cl)c3)C2)C/C1=C\c1ccc(Cl)c(Cl)c1` are 26700 nM, 6050 nM, 1.1 and 0.17.
On the same counts, the results for `COc1cc(/C=C2\CN(C(=O)C(=O)N3C/C(=C\c4cc(OC)c(OC)c(OC)c4)C(=O)/C(=C/c4ccc(OC)c(OC)c4OC)C3)C/C(=C\c3cc(OC)c(OC)c(OC)c3)C2=O)cc(OC)c1OC` are 270 nM, 270 nM, 24 and 17.
`COc1cc(/C=C/C(=O)CC(=O)/C=C/c2ccc(O)c(OC)c2)ccc1O` [CURCUMIN]: the results for the IC50 with HCT-116 [1] and in the test on HT-29 [3] were 11500 nM and 13200 nM, respectively. Besides, the “Ratio IC50” value in the test with HT-29 [2] was found to be 0.48; with HCT-116 [4], 0.39.
On the same counts, the results for `COc1ccc(/C=C2\CN(C(=O)C(=O)N3C/C(=C\c4ccc(OC)c(OC)c4)C(=O)/C(=C/c4ccc(OC)c(OC)c4)C3)C/C(=C\c3ccc(OC)c(OC)c3)C2=O)cc1OC` are 30 nM, 568 nM, 11 and 151.
Regarding `COc1ccc(/C=C2\CN(C(=O)C(=O)N3C/C(=C\c4ccc(OC)cc4)C(=O)/C(=C/c4ccc(OC)cc4)C3)C/C(=C\c3ccc(OC)cc3)C2=O)cc1`, the outcome in the test on HT-29 [5], in the test on HCT-116 [10], in the test with HT-29 [13] and in the test on HCT-116 [14] was inactive. Further, the Activity was 37.82% in the test with HCT-116 [6]; 44.4% with HCT-116 [7]; 21.63% with HCT-116 [8]; 34.93% in the test with HCT-116 [9]; 38.51% with HCT-116 [11]; 24.47% in the test with HCT-116 [12]. Moreover, the IC50 with HCT-116 [1] was 20 nM; in the test on HT-29 [3], 170 nM. Also, the “Ratio IC50” value came to 37 in the test on HT-29 [2] and 226 with HCT-116 [4].
As to `O=C1/C(=C/c2ccc(Cl)cc2)CN(C(=O)C(=O)N2C/C(=C\c3ccc(Cl)cc3)C(=O)/C(=C/c3ccc(Cl)cc3)C2)C/C1=C\c1ccc(Cl)cc1`, the IC50 in the test with HCT-116 [1] stood at 30 nM; in the test on HT-29 [3], 780 nM. The results for the “Ratio IC50” value in the test with HT-29 [2] and in the test with HCT-116 [4] were 8 and 151, respectively.
On the same counts, the results for `O=C1/C(=C\c2ccc(F)cc2)CN(C(=O)CC(=O)N2C/C(=C\c3ccc(F)cc3)C(=O)/C(=C/c3ccc(F)cc3)C2)C/C1=C\c1ccc(F)cc1` are 600 nM, 180 nM, 35 and 8.
On the same counts, the results for `O=C1/C(=C\c2ccc(O)cc2)CN(C(=O)CC(=O)N2C/C(=C\c3ccc(O)cc3)C(=O)/C(=C/c3ccc(O)cc3)C2)C/C1=C\c1ccc(O)cc1` are 720 nM, 460 nM, 14 and 6.
For `O=c1[nH]cc(F)c(=O)[nH]1` [FLUOROURACIL], in that order: 4520 nM, 6350 nM, 1 and 1.
As for `O=C1/C(=C\c2ccccc2)CN(C(=O)CC(=O)N2C/C(=C\c3ccccc3)C(=O)/C(=C/c3ccccc3)C2)C/C1=C\c1ccccc1`, the IC50 with HCT-116 [1] came out at 20 nM; in the test on HT-29 [3], 3 nM. The “Ratio IC50” value stood at 2117 with HT-29 [2] and 226 with HCT-116 [4].
For `O=C1/C(=C/c2ccc(F)cc2)CN(C(=O)C(=O)N2C/C(=C\c3ccc(F)cc3)C(=O)/C(=C/c3ccc(F)cc3)C2)C/C1=C\c1ccc(F)cc1`, in that order: 20 nM, 30 nM, 212 and 226.
For `CN(C)c1ccc(/C=C2/CN(C(=O)CC(=O)N3C/C(=C\c4ccc(N(C)C)cc4)C(=O)/C(=C/c4ccc(N(C)C)cc4)C3)C/C(=C\c3ccc(N(C)C)cc3)C2=O)cc1`, in that order: over 25000 nM, over 25000 nM, under 1 and under 1.
On the same counts, the results for `CN(C)c1ccc(/C=C2\CN(C(=O)C(=O)N3C/C(=C\c4ccc(N(C)C)cc4)C(=O)/C(=C/c4ccc(N(C)C)cc4)C3)C/C(=C\c3ccc(N(C)C)cc3)C2=O)cc1` are 27400 nM, 18600 nM, 0.34 and 0.17.
Regarding `O=C1/C(=C/c2ccccc2)CN(C(=O)C(=O)N2C/C(=C\c3ccccc3)C(=O)/C(=C/c3ccccc3)C2)C/C1=C\c1ccccc1`, the IC50 in the test with HCT-116 [1] is 40 nM; in the test on HT-29 [3], 14 nM. The “Ratio IC50” value with HT-29 [2] was determined as 454; in the test with HCT-116 [4] it was 113.
Molecule `O=C1/C(=C/c2ccccc2)CNC/C1=C\c1ccccc1` returned an Activity with Mus musculus of 19%.
`O=C1/C(=C\c2ccccc2)CN(CCCN2C/C(=C\c3ccccc3)C(=O)/C(=C/c3ccccc3)C2)C/C1=C\c1ccccc1`: the IC50 was 680 nM in the test on HCT-116 [1] and 2150 nM in the test with HT-29 [3]. Besides, the figures for the “Ratio IC50” value in the test on HT-29 [2] and in the test on HCT-116 [4] were 3 and 7, respectively.
With `O=C(O)/C=C/C(=O)N1C/C(=C\c2ccccc2)C(=O)/C(=C/c2ccccc2)C1`, the Activity in the test on Mus musculus is 29%.

Values taken from ChEMBL document CHEMBL2390942, “Novel 3,5-bis(arylidene)-4-piperidone dimers: potent cytotoxins against colon cancer cells” (Eur J Med Chem, 2013).
